Measured values from ChEMBL document CHEMBL1671858, “Coprevalence of plasmid-mediated quinolone resistance determinants QepA, Qnr, and AAC(6')-Ib-cr among 16S rRNA methylase RmtB-producing Escherichia coli isolates from pigs” (2008).
In brackets after ≈: the same amount, converted by molar mass.

What was measured:
Type in all cases: functional
Escherichia coli [1] = assay: Antimicrobial activity against Escherichia coli isolate GZ13 transconjugant harboring 16S rRNA methylase RmtB and qepA by agar dilution method relative to recipient strain
Escherichia coli [2] = assay: Antimicrobial activity against Escherichia coli isolate GZ16 transconjugant harboring 16S rRNA methylase RmtB and qepA by agar dilution method relative to recipient strain
Escherichia coli [3] = assay: Antimicrobial activity against Escherichia coli isolate GZ14 transconjugant harboring 16S rRNA methylase RmtB and qepA by agar dilution method relative to recipient strain
Escherichia coli [4] = assay: Antimicrobial activity against Escherichia coli isolate CQ1 PFGE type U harboring qepA gene by agar dilution method
Escherichia coli [5] = assay: Antimicrobial activity against Escherichia coli isolate CQ13 transconjugant harboring 16S rRNA methylase RmtB and qnrS1 by agar dilution method relative to recipient strain
Escherichia coli [6] = assay: Antimicrobial activity against Escherichia coli isolate CQ15 transconjugant harboring 16S rRNA methylase RmtB and qepA by agar dilution method relative to recipient strain
Escherichia coli [7] = assay: Antimicrobial activity against Escherichia coli isolate CQ2 PFGE type I2 harboring qepA gene by agar dilution method
Escherichia coli [8] = assay: Antimicrobial activity against Escherichia coli isolate GZ10 PFGE type R harboring qepA gene by agar dilution method
Escherichia coli [9] = assay: Antimicrobial activity against Escherichia coli isolate CQ20 transconjugant harboring 16S rRNA methylase RmtB and qepA by agar dilution method relative to recipient strain
Escherichia coli [10] = assay: Antimicrobial activity against Escherichia coli isolate CQ12 PFGE type Q harboring qepA gene by agar dilution method
Escherichia coli [11] = assay: Antimicrobial activity against Escherichia coli isolate GZ1 transconjugant harboring 16S rRNA methylase RmtB and qnrS1 by agar dilution method relative to recipient strain
Escherichia coli [12] = assay: Antimicrobial activity against Escherichia coli isolate GZ10 transconjugant harboring 16S rRNA methylase RmtB and qepA, aac(6')-Ib-cr gene by agar dilution method relative to recipient strain
Escherichia coli [13] = assay: Antimicrobial activity against Escherichia coli isolate CQ4 transconjugant harboring 16S rRNA methylase RmtB and qepA by agar dilution method relative to recipient strain
Escherichia coli [14] = assay: Antimicrobial activity against Escherichia coli isolate CQ26 PFGE type K harboring qepA gene by agar dilution method
Escherichia coli [15] = assay: Antimicrobial activity against Escherichia coli isolate GZ15 PFGE type G harboring qepA gene by agar dilution method
Escherichia coli [16] = assay: Antimicrobial activity against Escherichia coli isolate GZ4 transconjugant harboring 16S rRNA methylase RmtB and qepA by agar dilution method relative to recipient strain
Escherichia coli [17] = assay: Antimicrobial activity against Escherichia coli isolate CQ14 transconjugant harboring 16S rRNA methylase RmtB and qepA by agar dilution method relative to recipient strain
Escherichia coli [18] = assay: Antimicrobial activity against Escherichia coli isolate GZ2 transconjugant harboring 16S rRNA methylase RmtB and qnrS1 by agar dilution method relative to recipient strain
Escherichia coli [19] = assay: Antimicrobial activity against Escherichia coli isolate CQ13 PFGE type K harboring qepA gene by agar dilution method

Which “fold change (FC)” value (Escherichia coli [1]) does the source give for `CCN1CCN(c2cc3c(cc2F)c(=O)c(C(=O)O)cn3C2CC2)CC1` [ENROFLOXACIN] here?
The value was 2.

And the “fold change (FC)” value (Escherichia coli [2])?
Its value is 2.

What about the “fold change (FC)” value (Escherichia coli [3]) of the same compound?
Its value is 8.

What about the MIC (Escherichia coli [4]) of the same compound?
The MIC was 0.25 µg/mL (≈ 0.696 µM).

What about the “fold change (FC)” value (Escherichia coli [5]) of the same compound?
The value was 8.

What about the “fold change (FC)” value (Escherichia coli [6]) of the same compound?
The value was 16.

What about the MIC (Escherichia coli [7]) of the same compound?
The MIC was 2 µg/mL (≈ 5.56 µM).

And the MIC (Escherichia coli [8])?
Its MIC is 16 µg/mL (≈ 44.5 µM).

And the “fold change (FC)” value (Escherichia coli [9])?
Its value is 4.

What about the MIC (Escherichia coli [10]) of the same compound?
Its MIC is 2 µg/mL (≈ 5.56 µM).

And the “fold change (FC)” value (Escherichia coli [11])?
The value was 32.

And the “fold change (FC)” value (Escherichia coli [12])?
The value was 4.

What about the “fold change (FC)” value (Escherichia coli [13]) of the same compound?
Its value is 1.

What about the MIC (Escherichia coli [14]) of the same compound?
Its MIC is 0.5 µg/mL (≈ 1.39 µM).

What about the MIC (Escherichia coli [15]) of the same compound?
Its MIC is 8 µg/mL (≈ 22.3 µM).

And the “fold change (FC)” value (Escherichia coli [16])?
Its value is 4.

What about the “fold change (FC)” value (Escherichia coli [17]) of the same compound?
Its value is 2.

And the “fold change (FC)” value (Escherichia coli [18])?
Its value is 2.

And the MIC (Escherichia coli [19])?
The MIC was 0.5 µg/mL (≈ 1.39 µM).
